The values below come from patent US20060093658A1 (priority 2004, published 2006).

Molecules are shown by their SMILES.

The nature of series [1]: skin response / tolerability of microneedle patches. It counts as in vivo. An excerpt:
Following system removal, skin sites were visually assessed for signs of erythema, edema, bleeding, and infection until the sites returned to normal.

A short description of series [2]: clinical. The conditions noted are these: both, human, in vivo, iv. The protocol:
(§1) Methods: This was a 2-part study in healthy human volunteers (18-45 years). […] All treatments were administered 30 minutes after a subcutaneous injection of low-molecular weight heparin to counteract the increase in clotting factors in the healthy volunteer population. […] Topical effects were also examined. Pain upon patch application was scored and compared to subcutaneous saline injection with a 27-gauge needle. […] Bleeding assessment (visual and photographic) were measured 2 min post-system removal. […] Routine safely assessments were also included, including the following: solicitation of Adverse Events (AEs), measurement of vital signs, measurement of serum sodium concentration and platelets, and measurement of urine output, specific gravity and osmolality.
Data analysis included a review of PK parameters (Cmax, Tmax, elimination rate constant, apparent half-life, and AUCinf) and were estimated using standard methodology. […] The intra-individual (sigma) and inter-individual (CV %) variabilities were estimated using additive+proportional and log normal distributions, respectively. Model performance between hierarchical models was assessed both numerically (Objective Function, OBJ) and graphically (comparison of the predicted and observed data). A reduction of^3 6.7 units in OBJ per additional structural model parameter was considered significant at p<0.01 on the x^2 distribution.

A short description of series [3]: in vivo. The conditions noted are these: hairless, guinea pig. The protocol: The retainer ring containing the patch was loaded onto an impact applicator, and the patch was applied to the prepared skin site with an impact energy of 0.26 J, delivered in less than 10 ms.
Efficiency of delivery was calculated as the percentage delivered of the total dose coated onto the array. For mass balance calculations, drug residuals left on the skin and on the array were also taken into account.

The subject of series [4] is plasma coagulation Factor VIII. The experiment in a line: pharmacodynamic effect on plasma coagulation Factor VIII levels (one-stage clotting assay). It counts as in vivo, human. As for the experimental part: as §1
Series [5] can be described thus: in vivo. The conditions noted are these: hairless, guinea pig. The source holds these as a separate data set.
For series [6] the following is noted: cited from earlier work.
[7] abbreviates: desmopressin-coated microneedle patches.

As for `NC(=O)CC[C@@H]1NC(=O)[C@H](Cc2ccccc2)NC(=O)[C@H](Cc2ccc(O)cc2)NC(=O)CCSSC[C@@H](C(=O)N2CCC[C@H]2C(=O)N[C@H](CCCN=C(N)N)C(=O)NCC(N)=O)NC(=O)[C@H](CC(N)=O)NC1=O` [desmopressin], in series [1] (5 or 15 min wear), the “tolerability of the desmopressin-coated microneedle patches” value is “well tolerated”. Moreover, the “erythema following removal of the systems” value in series [1] (setting [7]) is on record as “only mild erythema”. Further, the “signs of edema, bleeding, or infection” value in series [1] (setting [7]) was “no signs of edema, bleeding, or infection”. Further, the “time to resolution of erythema” value in series [1] (setting [7]) was at most 24 h. The Tmax (usually the time at which the peak concentration occurs) was 0.26 h in series [2]; 0.25 h in series [2] (15 ug, time of peak concentration); 0.5 h in series [2] (Tmax); 1 h in series [5] (outbred euthymic (ibm:GOHI-hr and IAF:HA-HO-hr), 82 ug). The t1/2 in series [2] was found to be 3.8 ± 1.25 h. Moreover, the half-life (usually the time needed for the level to fall by half in the phase considered) was 3.1 to 3.8 h in series [2] (mean half-life) and 3.1 ± 0.38 h in series [2] (t1/2). The dose excreted in series [3] (iv, 20 ug) came out at 71%. The bioavailability (in general, the share of a dose that reaches the circulation, judged against a reference dose that is usually intravenous) in series [3] (outbred euthymic (ibm:GOHI-hr and IAF:HA-HO-hr)) turned out to be 85%. Moreover, the “Factor VIII value” was 280 % of baseline value in series [4] (IV-15 ug) and 321 % of baseline value in series [4] (IV-30 ug). The “pharmacological activity of absorbed desmopressin (factor VIII measurements)” value in series [4] (desmopressin absorbed after MFLX / IV) is given as “pharmacologically active”. For the same compound, the AUC (commonly the area under the concentration-time curve, a measure of exposure) amounted to 76 ng·h/mL in series [5] (82 ug) and 50.5 ng·h/mL in series [5] (iv, 11 ug). Moreover, the Cmax – broadly, the highest concentration seen after dosing – in series [5] (82 ug) was 49 ng/mL. Further, in series [6] (human, in vivo, inhaled or intranasal), the nasal bioavailability is listed as 3.4%. For the same compound, the oral bioavailability in series [6] (oral administration) is 0.1%.
